Assay results taken from US20250092065A1, “2-(INDAZOL-5-YL)-6-(PIPERIDIN-4-YL)-1,7-NAPHTHYRIDINE DERIVATIVES AND RELATED COMPOUNDS AS MODULATORS FOR SPLICING NUCLEIC ACIDS AND FOR THE TREATMENT OF PROLIFERATIVE DISEASES” (REMIX THERAPEUTICS INC., priority 2022, published 2025).
Read-outs that look alike come from different tables or passages of the source.

Columns and labels:
Assay type in all cases: cell-based, human
[1] = system: Target C; experiment: HiBiT protein abundance assay, Target C (K562 HiBiT knock-in); details: HiBiT knock-in K562 cells, 24 hours, top dose 10 μM
In short: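 K562 HiBiT knock-in cells (10000/well) were treated 24 h at 37° C with a 10-point 3-fold dilution series (top 10 μM final, ≤0.25% DMSO). HiBiT luminescence was read after lytic LgBiT detection. Percent response used unmodified K562 and DMSO-treated knock-in controls, and IC50 came from a four-parameter fit at 50% of untreated.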

[2] = system: MYB mRNA; experiment: RT-qPCR splicing assay, MYB mRNA canonical (CJ) and alternative (AJ) junction; details: Homo sapiens; for AC50: MYB alternative junction mRNA, read-out: MYB AJ (increase in AJ mRNA, AC50)
In short: (§1)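 A673 or K562 cells treated 24 h at 37 °C with an 11-point 3-fold dilution series (top 10 uM, DMSO ≤0.25%). Lysates went directly to one-step RT-qPCR quantifying canonical (CJ) and alternative-exon (AJ) junctions, normalized to GAPDH, GUSB or PPIA. Values from ΔΔCt versus DMSO, RQ = 2^(−ΔΔCt), expressed as percentage response.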

[3] = system: HTT; experiment: HiBiT protein abundance assay, HTT (K562 HiBiT knock-in); details: HiBiT knock-in K562 cells, 24 hours, top dose 10 μM
In short: (§2)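 Steps: seed HiBiT knock-in K562 cells; add compound in 10-point 3-fold series from 10 μM final; incubate 24 h, 37 °C; add lytic HiBiT reagent, shake 5 min, wait 10 min; read luminescence. Normalize to parental K562 and DMSO controls, fit 4PL, take IC50.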

[4] = system: MYB; experiment: HiBiT protein abundance assay, MYB (K562 HiBiT knock-in); details: HiBiT knock-in K562 cells, 24 hours, top dose 10 μM
In short: as §2

[5] = system: HTT mRNA; experiment: RT-qPCR splicing assay, HTT mRNA canonical (CJ) and alternative (AJ) junction; details: Homo sapiens; for AC50: HTT alternative junction mRNA, read-out: HTT AJ (increase in AJ mRNA, AC50)
In short: as §1

[6] = MYB canonical junction mRNA, RT-qPCR, read-out: MYB CJ (decrease in CJ mRNA levels, IC50)
[7] = canonical junction qPCR panel, Table 4, read-out: MYB IC50 (decrease in CJ mRNA levels)
[8] = HTT canonical junction mRNA, RT-qPCR, read-out: HTT CJ (decrease in CJ mRNA levels, IC50)
[9] = canonical junction qPCR panel, Table 4, read-out: HTT IC50 (decrease in CJ mRNA levels)

Row | Structure (SMILES) | IC50 [1] [nM] | AC50 ([2]; RT-qPCR) [nM] | IC50 [2, 6] [nM] | IC50 [2, 7] [nM] | IC50 [3] [nM] | IC50 [4] [nM] | AC50 ([5]; RT-qPCR) [nM] | IC50 [5, 8] [nM] | IC50 [5, 9] [nM]
1 | Cc1nc2c(F)c(O)c(-c3ccc4nc(N5CCC(NC6(C)CC6)C5)ccc4n3)cc2o1 (stereo not drawn) [Compound 325, 4-fluoro-2-methyl-6-(6-{3-[(1-methylcyclopropyl)amino]pyrrolidin-1-yl}-1,5-naphthyridin-2-yl)-1,3-benzoxazol-5-ol] | < 100 | < 100 | < 100 | < 100 | < 100 | < 100 | < 100 | < 100 | < 100
2 | Cc1nc2c(F)c(O)c(-c3ccc4nc(N5CCC(NC(C)C)C5)ccc4n3)cc2o1 (stereo not drawn) [Compound 328, 4-fluoro-6-{6-[3-(isopropylamino)pyrrolidin-1-yl]-1,5-naphthyridin-2-yl}-2-methyl-1,3-benzoxazol-5-ol] | < 100 | < 100 | < 100 | < 100 | < 100 | < 100 | < 100 | < 100 | < 100
3 | CN[C@@H]1CCN(c2ccc3nc(-c4cc(F)c5nc(C)cn5c4)ncc3n2)C1 [Compound 331, (3R)-1-(2-{8-fluoro-2-methylimidazo[1,2-a]pyridin-6-yl}pyrido[3,2-d]pyrimidin-6-yl)-N-methylpyrrolidin-3-amine] | 100 to 1000 | 100 to 1000 | < 100 | < 100 | 100 to 1000 | 100 to 1000 | 100 to 1000 | 100 to 1000 | 100 to 1000
4 | CN[C@H]1CCN(c2ccc3nc(-c4cc(F)c5nc(C)cn5c4)ncc3n2)C1 [Compound 332, (S)-1-(2-(8-fluoro-2-methylimidazo[1,2-a]pyridin-6-yl)pyrido[3,2-d]pyrimidin-6-yl)-N-methylpyrrolidin-3-amine] | 100 to 1000 | 100 to 1000 | 100 to 1000 | 100 to 1000 | 100 to 1000 | 100 to 1000 | 100 to 1000 | 100 to 1000 | 100 to 1000
5 | CC(C)(C)NC1CCN(c2ccc3nc(-c4cc5oc(C6CC6)nc5cc4O)ccc3n2)C1 (stereo not drawn) [Compound 333, 6-{6-[3-(tert-butylamino)pyrrolidin-1-yl]-1,5-naphthyridin-2-yl}-2-cyclopropyl-1,3-benzoxazol-5-ol] | 100 to 1000 | 100 to 1000 | 100 to 1000 | 100 to 1000 | 100 to 1000 | 100 to 1000 | 100 to 1000 | 100 to 1000 | 100 to 1000
6 | COCc1nc2cc(O)c(-c3ccc4nc(N5CCC(NC(C)(C)C)C5)ccc4n3)cc2o1 (stereo not drawn) [Compound 334, 6-{6-[3-(tert-butylamino)pyrrolidin-1-yl]-1,5-naphthyridin-2-yl}-2-(methoxymethyl)-1,3-benzoxazol-5-ol] | 100 to 1000 | 100 to 1000 | 100 to 1000 | 100 to 1000 | 100 to 1000 | 100 to 1000 | 100 to 1000 | 100 to 1000 | 100 to 1000
7 | COc1cc2nc(C3COC3)oc2cc1-c1ccc2nc(N3CCC(NC(C)(C)C)C3)ccc2n1 (stereo not drawn) [Compound 335] | 1000 to 10000 | 1000 to 10000 | 1000 to 10000 | 1000 to 10000 | 1000 to 10000 | 1000 to 10000 | 1000 to 10000 | 1000 to 10000 | 1000 to 10000
8 | CC(C)(C)NC1CCN(c2ccc3nc(-c4cc5oc(CO)nc5cc4O)ccc3n2)C1 (stereo not drawn) [Compound 336, 6-{6-[3-(tert-butylamino)pyrrolidin-1-yl]-1,5-naphthyridin-2-yl}-2-(hydroxymethyl)-1,3-benzoxazol-5-ol] | < 100 | 100 to 1000 | 100 to 1000 | 100 to 1000 | < 100 | < 100 | 100 to 1000 | < 100 | < 100
9 | CNC1CCN(c2ccc3nc(-c4cc5cn(C)nc5c(C)c4O)ncc3n2)C1 (stereo not drawn) [Compound 337, 2,7-dimethyl-5-{6-[3-(methylamino)pyrrolidin-1-yl]pyrido[3,2-d]pyrimidin-2-yl}indazol-6-ol] | 100 to 1000 | < 100 | < 100 | < 100 | 100 to 1000 | < 100 | 100 to 1000 | 100 to 1000 | 100 to 1000
10 | Cc1c(O)c(-c2ncc3nc(N4CCNCC4)ccc3n2)cc2cn(C)nc12 [Compound 338, 2,7-dimethyl-5-[6-(piperazin-1-yl)pyrido[3,2-d]pyrimidin-2-yl]indazol-6-ol] | 100 to 1000 | 100 to 1000 | < 100 | < 100 | 100 to 1000 | < 100 | 1000 to 10000 | 100 to 1000 | 100 to 1000
11 | Cc1nc2cc(O)c(-c3ccc4nc(N5CCC(NC(C)(C)C)C5)ccc4n3)cc2n1C (stereo not drawn) [Compound 339, 6-{6-[3-(tert-butylamino)pyrrolidin-1-yl]-1,5-naphthyridin-2-yl}-1,2-dimethyl-1,3-benzodiazol-5-ol] | 100 to 1000 | 100 to 1000 | 100 to 1000 | 100 to 1000 | 100 to 1000 | 100 to 1000 | 100 to 1000 | 100 to 1000 | 100 to 1000
12 | Cc1nc2cc(-c3ccc4nc(N5CCC(NC(C)(C)C)C5)ccc4n3)c(O)cc2n1C (stereo not drawn) [Compound 340, 6-{6-[3-(tert-butylamino)pyrrolidin-1-yl]-1,5-naphthyridin-2-yl}-2,3-dimethyl-1,3-benzodiazol-5-ol] | 100 to 1000 | 100 to 1000 | 100 to 1000 | 100 to 1000 | 100 to 1000 | 100 to 1000 | 100 to 1000 | 100 to 1000 | 100 to 1000
13 | Cn1cc2cc(-c3ccc4nc(N5CCC(NC67CC(O)(C6)C7)C5)ccc4n3)c(O)cc2n1 (stereo not drawn) [Compound 341, 5-{6-[3-({3-hydroxybicyclo[1.1.1]pentan-1-yl}amino)pyrrolidin-1-yl]-1,5-naphthyridin-2-yl}-2-methylindazol-6-ol] | < 100 | 100 to 1000 | 100 to 1000 | 100 to 1000 | 100 to 1000 | 100 to 1000 | 100 to 1000 | 100 to 1000 | 100 to 1000
14 | Cc1c(O)c(-c2ncc3nc(N4CCC5(CCN5)C4)ccc3n2)cc2cn(C)nc12 (stereo not drawn) [Compound 342, 5-(6-{1,6-diazaspiro[3.4]octan-6-yl}pyrido[3,2-d]pyrimidin-2-yl)-2,7-dimethylindazol-6-ol] | 100 to 1000 | 100 to 1000 | 100 to 1000 | 100 to 1000 | 100 to 1000 | 100 to 1000 | 100 to 1000 | 100 to 1000 | 100 to 1000
15 | Cc1cc2nc(-c3ccc4nc(N5CCC(NC(C)(C)C)C5)ccc4n3)cn2c(C)n1 (stereo not drawn) [Compound 344, N-tert-butyl-1-(6-{5,7-dimethylimidazo[1,2-c]pyrimidin-2-yl}-1,5-naphthyridin-2-yl)pyrrolidin-3-amine] | 1000 to 10000 | 1000 to 10000 | 1000 to 10000 | 1000 to 10000 | 1000 to 10000 | 1000 to 10000 | 1000 to 10000 | 1000 to 10000 | 1000 to 10000
16 | CCc1nc2cc(O)c(-c3ccc4nc(N5CCC(NC(C)(C)C)C5)ccc4n3)cc2o1 (stereo not drawn) [Compound 346, 6-{6-[3-(tert-butylamino)pyrrolidin-1-yl]-1,5-naphthyridin-2-yl}-2-ethyl-1,3-benzoxazol-5-ol] | 1000 to 10000 | 1000 to 10000 | 1000 to 10000 | 1000 to 10000 | 1000 to 10000 | 1000 to 10000 | 1000 to 10000 | 1000 to 10000 | 1000 to 10000
17 | Cc1nc2cc(O)c(-c3ccc4nc(N5CC[C@H](N[C@H]6C[C@H](F)C6)C5)ccc4n3)cc2o1 [Compound 350, 2-methyl-6-{6-[(3S)-3-{[(1r,3r)-3-fluorocyclobutyl]amino}pyrrolidin-1-yl]-1,5-naphthyridin-2-yl}-1,3-benzoxazol-5-ol] | 100 to 1000 | 100 to 1000 | 100 to 1000 | 100 to 1000 | < 100 | 100 to 1000 | < 100 | < 100 | < 100
